# Measured values as given in ChEMBL document CHEMBL4382229, “Benzofuran derivatives and their anti-tubercular, anti-bacterial activities” (Eur J Med Chem, 2019).
# Experiments:
# Type in all cases: functional
# Bacillus subtilis [1] = test: Antibacterial activity against Bacillus subtilis NCIM 2439 assessed as zone of inhibition at 1 ug/ml after 24 hrs by agar diffusion method; conditions: NCIM 2439, 24 h, read-out: IZ
# Pseudomonas aeruginosa [2] = test: Antibacterial activity against Pseudomonas aeruginosa NCIB 8650 assessed as zone of inhibition at 1 ug/ml after 24 hrs by agar diffusion method; conditions: NCIB 8650, 24 h, read-out: IZ
# Staphylococcus aureus [3] = test: Antibacterial activity against Staphylococcus aureus NCIM 2079 assessed as zone of inhibition at 1 ug/ml after 24 hrs by agar diffusion method; conditions: NCIM 2079, 24 h, read-out: IZ
# Escherichia coli [4] = test: Antibacterial activity against Escherichia coli NCIM 2064 assessed as zone of inhibition at 1 ug/ml after 24 hrs by agar diffusion method; conditions: NCIM 2064, 24 h, read-out: IZ
# Bacillus subtilis [5] = test: Antibacterial activity against Bacillus subtilis MTCC 1134 after 24 hrs by broth dilution method; conditions: MTCC 1134, 24 h
# Escherichia coli [6] = test: Antibacterial activity against Escherichia coli MTCC 1559 after 24 hrs by broth dilution method; conditions: MTCC 1559, 24 h
# Pseudomonas aeruginosa [7] = test: Antibacterial activity against Pseudomonas aeruginosa MTCC 1034 after 24 hrs by broth dilution method; conditions: MTCC 1034, 24 h
# Pseudomonas aeruginosa [8] = test: Antibacterial activity against Pseudomonas aeruginosa assessed as zone of inhibition at 1 mg/ml after 32 hrs by agar-well diffusion method; conditions: read-out: IZ
# Staphylococcus aureus [9] = test: Antibacterial activity against Staphylococcus aureus assessed as zone of inhibition at 1 mg/ml after 32 hrs by agar-well diffusion method; conditions: read-out: IZ
# Klebsiella pneumoniae = test: Antibacterial activity against Klebsiella pneumoniae assessed as zone of inhibition at 1 mg/ml after 32 hrs by agar-well diffusion method; conditions: read-out: IZ
# Escherichia coli [10] = test: Antibacterial activity against Escherichia coli assessed as zone of inhibition at 1 mg/ml after 32 hrs by agar-well diffusion method; conditions: read-out: IZ
SMILES,zone of inhibition at 1 µg/mL (Bacillus subtilis [1]) [mm],zone of inhibition at 1 µg/mL (Pseudomonas aeruginosa [2]) [mm],zone of inhibition at 1 µg/mL (Staphylococcus aureus [3]) [mm],zone of inhibition at 1 µg/mL (Escherichia coli [4]) [mm],also measured
CCOC(=O)c1cc(-c2cc3cc(Br)ccc3o2)on1,9 to 30,9 to 30,9 to 30,9 to 30,–
COC(=O)c1cc(-c2cc3ccccc3o2)n(C(N)=O)n1,9 to 30,9 to 30,9 to 30,9 to 30,–
COC(=O)c1cc(-c2oc3ccc(Cl)cc3c2C)n(-c2ccccc2)n1,9 to 30,9 to 30,9 to 30,9 to 30,–
Cc1ccc(-c2cc(-c3cc4ccccc4o3)nc(O)n2)s1,–,–,–,–,MIC (Bacillus subtilis [5]): 4.32 to 18.4 µg/mL; MIC (Escherichia coli [6]): 4.32 to 18.4 µg/mL; MIC (Pseudomonas aeruginosa [7]): 4.32 to 18.4 µg/mL
CCOC(=O)c1cc(-c2cc3ccccc3o2)on1,9 to 30,9 to 30,9 to 30,9 to 30,–
COC(=O)c1cc(-c2cc3ccccc3o2)n(-c2ccccc2)n1,9 to 30,9 to 30,9 to 30,9 to 30,–
CCOC(=O)c1cc(-c2oc3c(Cl)cc(Cl)cc3c2C)on1,9 to 30,9 to 30,9 to 30,9 to 30,–
Cc1ccc(-c2cc(-c3cc4ccccc4o3)nc(S)n2)s1,–,–,–,–,MIC (Bacillus subtilis [5]): 4.32 to 18.4 µg/mL; MIC (Escherichia coli [6]): 4.32 to 18.4 µg/mL; MIC (Pseudomonas aeruginosa [7]): 4.32 to 18.4 µg/mL
COC(=O)c1cc(-c2oc3ccc(Cl)cc3c2C)[nH]n1,9 to 30,9 to 30,9 to 30,9 to 30,–
Brc1ccc2oc(-c3cn4c(-c5cc6cc(Br)ccc6o5)csc4n3)cc2c1,–,–,–,–,zone of inhibition at 1000 µg/mL (Pseudomonas aeruginosa [8]): 6 to 23 mm; zone of inhibition at 1000 µg/mL (Staphylococcus aureus [9]): 6 to 23 mm; zone of inhibition at 1000 µg/mL (Klebsiella pneumoniae): 6 to 23 mm; zone of inhibition at 1000 µg/mL (Escherichia coli [10]): 6 to 23 mm
Cc1ccc(-c2csc3nc(-c4cc5ccccc5o4)cn23)cc1,–,–,–,–,zone of inhibition at 1000 µg/mL (Pseudomonas aeruginosa [8]): 6 to 23 mm; zone of inhibition at 1000 µg/mL (Staphylococcus aureus [9]): 6 to 23 mm; zone of inhibition at 1000 µg/mL (Klebsiella pneumoniae): 6 to 23 mm; zone of inhibition at 1000 µg/mL (Escherichia coli [10]): 6 to 23 mm
Nc1nc(-c2cc3cc(Br)ccc3o2)cc(-c2cccs2)n1,–,–,–,–,MIC (Bacillus subtilis [5]): 4.32 to 18.4 µg/mL; MIC (Escherichia coli [6]): 4.32 to 18.4 µg/mL; MIC (Pseudomonas aeruginosa [7]): 4.32 to 18.4 µg/mL
Fc1ccc(-c2csc3nc(-c4cc5ccccc5o4)cn23)cc1,–,–,–,–,zone of inhibition at 1000 µg/mL (Pseudomonas aeruginosa [8]): 6 to 23 mm; zone of inhibition at 1000 µg/mL (Staphylococcus aureus [9]): 6 to 23 mm; zone of inhibition at 1000 µg/mL (Klebsiella pneumoniae): 6 to 23 mm; zone of inhibition at 1000 µg/mL (Escherichia coli [10]): 6 to 23 mm
Brc1ccc2oc(-c3cn4c(-c5ccccc5)csc4n3)cc2c1,–,–,–,–,zone of inhibition at 1000 µg/mL (Pseudomonas aeruginosa [8]): 15 to 20 mm; zone of inhibition at 1000 µg/mL (Staphylococcus aureus [9]): 15 to 20 mm; zone of inhibition at 1000 µg/mL (Klebsiella pneumoniae): 15 to 20 mm; zone of inhibition at 1000 µg/mL (Escherichia coli [10]): 15 to 20 mm
COC(=O)c1cc(-c2cc3ccccc3o2)[nH]n1,9 to 30,9 to 30,9 to 30,9 to 30,–
Cc1ccc(-c2csc3nc(-c4cc5cc(Br)ccc5o4)cn23)cc1,–,–,–,–,zone of inhibition at 1000 µg/mL (Pseudomonas aeruginosa [8]): 6 to 23 mm; zone of inhibition at 1000 µg/mL (Staphylococcus aureus [9]): 6 to 23 mm; zone of inhibition at 1000 µg/mL (Klebsiella pneumoniae): 6 to 23 mm; zone of inhibition at 1000 µg/mL (Escherichia coli [10]): 6 to 23 mm
Oc1nc(-c2cc3ccccc3o2)cc(-c2cccs2)n1,–,–,–,–,MIC (Bacillus subtilis [5]): 4.32 to 18.4 µg/mL; MIC (Escherichia coli [6]): 4.32 to 18.4 µg/mL; MIC (Pseudomonas aeruginosa [7]): 4.32 to 18.4 µg/mL
Sc1nc(-c2cc3ccccc3o2)cc(-c2cccs2)n1,–,–,–,–,MIC (Bacillus subtilis [5]): 4.32 to 18.4 µg/mL; MIC (Escherichia coli [6]): 4.32 to 18.4 µg/mL; MIC (Pseudomonas aeruginosa [7]): 4.32 to 18.4 µg/mL
Brc1ccc2oc(-c3csc4nc(-c5cc6ccccc6o5)cn34)cc2c1,–,–,–,–,zone of inhibition at 1000 µg/mL (Pseudomonas aeruginosa [8]): 6 to 23 mm; zone of inhibition at 1000 µg/mL (Staphylococcus aureus [9]): 6 to 23 mm; zone of inhibition at 1000 µg/mL (Klebsiella pneumoniae): 6 to 23 mm; zone of inhibition at 1000 µg/mL (Escherichia coli [10]): 6 to 23 mm
Fc1ccc(-c2csc3nc(-c4cc5cc(Br)ccc5o4)cn23)cc1,–,–,–,–,zone of inhibition at 1000 µg/mL (Pseudomonas aeruginosa [8]): 6 to 23 mm; zone of inhibition at 1000 µg/mL (Staphylococcus aureus [9]): 6 to 23 mm; zone of inhibition at 1000 µg/mL (Klebsiella pneumoniae): 6 to 23 mm; zone of inhibition at 1000 µg/mL (Escherichia coli [10]): 6 to 23 mm

SMILES,zone of inhibition at 1 µg/mL (Bacillus subtilis [1]) [mm],zone of inhibition at 1 µg/mL (Pseudomonas aeruginosa [2]) [mm],zone of inhibition at 1 µg/mL (Staphylococcus aureus [3]) [mm],zone of inhibition at 1 µg/mL (Escherichia coli [4]) [mm],also measured
NNC(=O)c1cc(-c2cc3ccccc3o2)n(-c2ccccc2)n1,9 to 30,9 to 30,9 to 30,9 to 30,–
CCOC(=O)c1cc(-c2oc3ccc(Cl)cc3c2C)on1,9 to 30,9 to 30,9 to 30,9 to 30,–
Oc1nc(-c2cc3cc(Br)ccc3o2)cc(-c2cccs2)n1,–,–,–,–,MIC (Bacillus subtilis [5]): 4.32 to 18.4 µg/mL; MIC (Escherichia coli [6]): 4.32 to 18.4 µg/mL; MIC (Pseudomonas aeruginosa [7]): 4.32 to 18.4 µg/mL
Brc1ccc2oc(-c3cn4c(-c5cc6ccccc6o5)csc4n3)cc2c1,–,–,–,–,zone of inhibition at 1000 µg/mL (Pseudomonas aeruginosa [8]): 6 to 23 mm; zone of inhibition at 1000 µg/mL (Staphylococcus aureus [9]): 6 to 23 mm; zone of inhibition at 1000 µg/mL (Klebsiella pneumoniae): 6 to 23 mm; zone of inhibition at 1000 µg/mL (Escherichia coli [10]): 6 to 23 mm
COC(=O)c1cc(-c2cc3cc(Br)ccc3o2)n(C(N)=O)n1,9 to 30,9 to 30,9 to 30,9 to 30,–
Cc1c(-c2cc(C(=O)NN)nn2-c2ccccc2)oc2ccc(Cl)cc12,9 to 30,9 to 30,9 to 30,9 to 30,–
c1ccc(-c2csc3nc(-c4cc5ccccc5o4)cn23)cc1,–,–,–,–,zone of inhibition at 1000 µg/mL (Pseudomonas aeruginosa [8]): 6 to 23 mm; zone of inhibition at 1000 µg/mL (Staphylococcus aureus [9]): 6 to 23 mm; zone of inhibition at 1000 µg/mL (Klebsiella pneumoniae): 6 to 23 mm; zone of inhibition at 1000 µg/mL (Escherichia coli [10]): 6 to 23 mm
COC(=O)c1cc(-c2cc3cc(Br)ccc3o2)n(-c2ccccc2)n1,9 to 30,9 to 30,9 to 30,9 to 30,–
Cc1ccc(-c2cc(-c3cc4cc(Br)ccc4o3)nc(N)n2)s1,–,–,–,–,MIC (Bacillus subtilis [5]): 4.32 to 18.4 µg/mL; MIC (Escherichia coli [6]): 4.32 to 18.4 µg/mL; MIC (Pseudomonas aeruginosa [7]): 4.32 to 18.4 µg/mL
COC(=O)c1cc(-c2oc3c(Cl)cc(Cl)cc3c2C)[nH]n1,19 to 30,19 to 30,19 to 30,19 to 30,–
COC(=O)c1cc(-c2oc3ccc(Cl)cc3c2C)n(C(N)=O)n1,9 to 30,9 to 30,9 to 30,9 to 30,–
NNC(=O)c1cc(-c2cc3cc(Br)ccc3o2)n(-c2ccccc2)n1,9 to 30,9 to 30,9 to 30,9 to 30,–
Sc1nc(-c2cc3cc(Br)ccc3o2)cc(-c2cccs2)n1,–,–,–,–,MIC (Bacillus subtilis [5]): 4.32 to 18.4 µg/mL; MIC (Escherichia coli [6]): 4.32 to 18.4 µg/mL; MIC (Pseudomonas aeruginosa [7]): 4.32 to 18.4 µg/mL
COC(=O)c1cc(-c2oc3c(Cl)cc(Cl)cc3c2C)n(-c2ccccc2)n1,9 to 30,9 to 30,9 to 30,9 to 30,–
Cc1ccc(-c2cc(-c3cc4cc(Br)ccc4o3)nc(S)n2)s1,–,–,–,–,MIC (Bacillus subtilis [5]): 4.32 to 18.4 µg/mL; MIC (Escherichia coli [6]): 4.32 to 18.4 µg/mL; MIC (Pseudomonas aeruginosa [7]): 4.32 to 18.4 µg/mL
Cc1ccc(-c2cc(-c3cc4cc(Br)ccc4o3)nc(O)n2)s1,–,–,–,–,MIC (Bacillus subtilis [5]): 4.32 to 18.4 µg/mL; MIC (Escherichia coli [6]): 4.32 to 18.4 µg/mL; MIC (Pseudomonas aeruginosa [7]): 4.32 to 18.4 µg/mL
COC(=O)c1cc(-c2oc3c(Cl)cc(Cl)cc3c2C)n(C(N)=O)n1,9 to 30,9 to 30,9 to 30,9 to 30,–
COC(=O)c1cc(-c2cc3cc(Br)ccc3o2)[nH]n1,9 to 30,9 to 30,9 to 30,9 to 30,–
Nc1nc(-c2cc3ccccc3o2)cc(-c2cccs2)n1,–,–,–,–,MIC (Bacillus subtilis [5]): 4.32 to 18.4 µg/mL; MIC (Escherichia coli [6]): 4.32 to 18.4 µg/mL; MIC (Pseudomonas aeruginosa [7]): 4.32 to 18.4 µg/mL
Cc1c(-c2cc(C(=O)NN)nn2-c2ccccc2)oc2c(Cl)cc(Cl)cc12,9 to 30,9 to 30,9 to 30,9 to 30,–
